Data taken from publication PMC2860192 (ACS chemical neuroscience, 2010).

Assays:
Assay type in all cases: cell-based
[1] = target: T1, GluR3 (GluR3o, flop variant), homomeric AMPA-type receptor (Rattus norvegicus, UniProt P19492); test: two-electrode voltage clamp, Xenopus oocytes, agonist-evoked current; settings: 100 μM, −80 mV, pH 7.4
[2] = target: GluR6 (GluR6(R), edited version), homomeric KA-type receptor (Rattus norvegicus, UniProt P42260, Q621R); test: two-electrode voltage clamp, Xenopus oocytes, block of kainate current
[3] = test system: AMPA receptors expressed by rat cerebral cortex mRNA; test: as above; settings: competitive antagonist; 100 μM kainate; −80 mV; pH 7.4; 19–21°C
[4] = test system: metabotropic glutamate receptors (mGluRs, group I) expressed by rat brain mRNA; settings: antagonist test, 10 μM quisqualate in the cerebellum mRNA test
[5] = target: T1, GluR3 (GluR3o, flop variant), homomeric AMPA-type receptor; test: two-electrode voltage clamp, Xenopus oocytes, block of kainate current

GluR6 (GluR6(R), edited version), homomeric KA-type receptor, sequence (P42260 32-908 Q621R): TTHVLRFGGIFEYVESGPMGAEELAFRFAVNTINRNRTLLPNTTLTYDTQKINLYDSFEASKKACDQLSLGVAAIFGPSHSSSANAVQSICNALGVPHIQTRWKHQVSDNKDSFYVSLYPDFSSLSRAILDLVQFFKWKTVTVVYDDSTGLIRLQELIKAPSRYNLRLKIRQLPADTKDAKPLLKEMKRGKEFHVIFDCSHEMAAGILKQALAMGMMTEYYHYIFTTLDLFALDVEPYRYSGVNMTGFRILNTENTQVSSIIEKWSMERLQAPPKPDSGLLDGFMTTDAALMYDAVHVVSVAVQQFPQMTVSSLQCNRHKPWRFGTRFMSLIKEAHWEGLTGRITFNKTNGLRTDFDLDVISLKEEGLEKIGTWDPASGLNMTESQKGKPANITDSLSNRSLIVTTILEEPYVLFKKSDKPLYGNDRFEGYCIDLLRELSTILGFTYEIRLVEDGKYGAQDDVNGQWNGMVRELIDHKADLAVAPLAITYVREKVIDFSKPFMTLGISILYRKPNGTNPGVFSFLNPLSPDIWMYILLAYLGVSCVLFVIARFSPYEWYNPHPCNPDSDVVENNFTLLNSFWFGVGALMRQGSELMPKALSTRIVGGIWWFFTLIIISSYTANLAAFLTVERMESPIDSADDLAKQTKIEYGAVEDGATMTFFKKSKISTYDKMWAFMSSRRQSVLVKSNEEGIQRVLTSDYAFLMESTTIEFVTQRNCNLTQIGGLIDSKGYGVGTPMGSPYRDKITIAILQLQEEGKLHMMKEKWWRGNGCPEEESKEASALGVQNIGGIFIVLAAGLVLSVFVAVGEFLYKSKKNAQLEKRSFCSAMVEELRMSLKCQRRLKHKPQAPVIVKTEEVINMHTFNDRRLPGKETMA

Row | SMILES | two-electrode voltage clamp, Xenopus oocytes, agonist-evoked current [1] | IC50 [2] [nM] | IC50 [3] [nM] | IC50 [4] [nM] | IC50 [5] [nM]
1 | C=C(C)[C@H]1CN[C@H](C(=O)O)[C@H]1CC(=O)O [kainate] | GluR3 receptors, similarly to the AMPA receptors expressed by mRNA, generated large KA-currents | – | – | – | –
2 | N[C@@H](C(=O)O)[C@H](O)[C@@]1(C(=O)O)CC[C@H](C[C@H](NC(=O)c2cc(Cl)c(O)c(Cl)c2)C(=O)O)N1 [(−)-kaitocephalin] | – | ~100000 | 242 ± 37 | > 100000 | 502 ± 55
